Assay results: publication PMC6272674, “Selected Compounds Structurally Related to Acyclic Sesquiterpenoids and Their Antibacterial and Cytotoxic Activity” (Molecules, 2015)
In brackets after ≈: the same amount, converted by molar mass.

system: Staphylococcus aureus ATCC 43300; test: Micro-dilution broth MIC, Staphylococcus aureus; type: cell-based; conditions: ATCC43300, 24 h, 37 °C, read-out: Minimum Inhibitory Concentrations MIC
Description: (§1) The standard strains, Gram-positive: Staphylococcus aureus ATCC […], Enterococcus faecalis Van B ATCC 51299 and Enterococcus faecium VA sensitive ATCC 35667, and Gram-negative: Escherichia coli ATCC 25922, Klebsiella pneumoniae ATCC 700603 and Acinetobacter baumannii ATCC 19606, came from a collection of the Environmental Biology Department, Medical University of Łódź. The standard strains were cultivated in Columbia Agar Medium and incubated at 37 °C for 24 h in aerobic conditions.
(§2) The antibacterial activity of the racemates and E/Z-mixtures was investigated using the micro‑dilution broth method. The compounds were diluted in ethanol. This stock solution was mixed with 100 µL of Mueller-Hinton broth to obtain concentrations from 10 µg/mL to 80 µg/mL. The mixtures were then transferred to 96-well microtiter plates. The microbial suspension was standardised to a cell density of 1.5 × 10^8 CFU, which was equal to an optical density of 0.5 on the Mc Farland scale by a bio-Merieux densitometer; one well was filled with broth only to act as a control for strain growth.

MIC	SMILES
8 µg/mL (≈ 24.1 µM)	O=C(O)c1cn(C2CC2)c2cc(N3CCNCC3)c(F)cc2c1=O [Ciprofloxacin, reference compound]
18 µg/mL (≈ 72.5 µM)	CC(C)=CCCC(C)C(C)=CCCC(C)=CC=O (stereo not drawn) [Compound 18, 3,7,8,12-Tetramethyltrideca-2,6,11-trienal]
28 µg/mL (≈ 119 µM)	CC(C)=CCCC(C)/C=C/CCC(C)=CC=O (stereo not drawn) [Compound 19, (6E)-3,8,12-Trimethyltrideca-2,6,11-trienal]

system: Enterococcus faecalis ATCC 51299; test: Micro-dilution broth MIC, Enterococcus faecalis; type: cell-based; conditions: ATCC51299, 24 h, 37 °C, read-out: Minimum Inhibitory Concentrations MIC
Description: as §1, §2

MIC	SMILES
2 µg/mL (≈ 6.04 µM)	O=C(O)c1cn(C2CC2)c2cc(N3CCNCC3)c(F)cc2c1=O [Ciprofloxacin, reference compound]
22 µg/mL (≈ 88.6 µM)	CC(C)=CCCC(C)C(C)=CCCC(C)=CC=O (stereo not drawn) [Compound 18, 3,7,8,12-Tetramethyltrideca-2,6,11-trienal]
34 µg/mL (≈ 145 µM)	CC(C)=CCCC(C)/C=C/CCC(C)=CC=O (stereo not drawn) [Compound 19, (6E)-3,8,12-Trimethyltrideca-2,6,11-trienal]

system: Enterococcus faecium ATCC 35667; test: Micro-dilution broth MIC, Enterococcus faecium; type: cell-based; conditions: ATCC35667, 24 h, 37 °C, read-out: Minimum Inhibitory Concentrations MIC
Description: as §1, §2

MIC	SMILES
8 µg/mL (≈ 24.1 µM)	O=C(O)c1cn(C2CC2)c2cc(N3CCNCC3)c(F)cc2c1=O [Ciprofloxacin, reference compound]
28 µg/mL (≈ 113 µM)	CC(C)=CCCC(C)C(C)=CCCC(C)=CC=O (stereo not drawn) [Compound 18, 3,7,8,12-Tetramethyltrideca-2,6,11-trienal]
38 µg/mL (≈ 162 µM)	CC(C)=CCCC(C)/C=C/CCC(C)=CC=O (stereo not drawn) [Compound 19, (6E)-3,8,12-Trimethyltrideca-2,6,11-trienal]

system: Escherichia coli ATCC 25922; test: Micro-dilution broth MIC, Escherichia coli; type: cell-based; conditions: ATCC25922, 24 h, 37 °C, read-out: Minimum Inhibitory Concentrations MIC
Description: as §1, §2

MIC	SMILES
4 µg/mL (≈ 12.1 µM)	O=C(O)c1cn(C2CC2)c2cc(N3CCNCC3)c(F)cc2c1=O [Ciprofloxacin, reference compound]
52 µg/mL (≈ 209 µM)	CC(C)=CCCC(C)C(C)=CCCC(C)=CC=O (stereo not drawn) [Compound 18, 3,7,8,12-Tetramethyltrideca-2,6,11-trienal]
44 µg/mL (≈ 188 µM)	CC(C)=CCCC(C)/C=C/CCC(C)=CC=O (stereo not drawn) [Compound 19, (6E)-3,8,12-Trimethyltrideca-2,6,11-trienal]

system: Klebsiella pneumoniae ATCC 700603; test: Micro-dilution broth MIC, Klebsiella pneumoniae; type: cell-based; conditions: ATCC700603, 24 h, 37 °C, read-out: Minimum Inhibitory Concentrations MIC
Description: as §1, §2

MIC	SMILES
2 µg/mL (≈ 6.04 µM)	O=C(O)c1cn(C2CC2)c2cc(N3CCNCC3)c(F)cc2c1=O [Ciprofloxacin, reference compound]
46 µg/mL (≈ 185 µM)	CC(C)=CCCC(C)C(C)=CCCC(C)=CC=O (stereo not drawn) [Compound 18, 3,7,8,12-Tetramethyltrideca-2,6,11-trienal]
36 µg/mL (≈ 154 µM)	CC(C)=CCCC(C)/C=C/CCC(C)=CC=O (stereo not drawn) [Compound 19, (6E)-3,8,12-Trimethyltrideca-2,6,11-trienal]

system: Acinetobacter baumannii ATCC 19606; test: Micro-dilution broth MIC, Acinetobacter baumannii; type: cell-based; conditions: ATCC19606, 24 h, 37 °C, read-out: Minimum Inhibitory Concentrations MIC
Description: as §1, §2

MIC	SMILES
4 µg/mL (≈ 12.1 µM)	O=C(O)c1cn(C2CC2)c2cc(N3CCNCC3)c(F)cc2c1=O [Ciprofloxacin, reference compound]
46 µg/mL (≈ 185 µM)	CC(C)=CCCC(C)C(C)=CCCC(C)=CC=O (stereo not drawn) [Compound 18, 3,7,8,12-Tetramethyltrideca-2,6,11-trienal]
42 µg/mL (≈ 179 µM)	CC(C)=CCCC(C)/C=C/CCC(C)=CC=O (stereo not drawn) [Compound 19, (6E)-3,8,12-Trimethyltrideca-2,6,11-trienal]

system: Malignant Melanoma MEWO; test: MTT viability, MEWO; type: cell-based, human; conditions: Homo sapiens, 24 h, range 10–1000 µM, read-out: half maximal inhibitory concentration (IC50), interpolated
Description: (§3) Cell lines and in vitro culture conditions: The human promyelocytic leukaemia cell line HL-60 was obtained from the Centre of Molecular and Macromolecular Biology in Łódź, Poland and was cultured in RPMI 1640 medium with 20% heat-inactivated fetal bovine serum (FBS). To reduce spontaneous differentiation, the cells were never allowed to exceed a concentration of 1.0 × 10^6 cells/mL. The human keratinocyte cell line HaCaT was obtained from Cell Lines Service, Germany (CLS) and cultured in DMEM medium with 10% FBS. Human colorectal adenocarcinoma HT29 and normal epithelial IEC-6 cell lines (from ATCC) were cultured in DMEM medium with 10% FBS. The human skin melanoma cell line MEWO (from CLS) was cultured in DMEM:F12 supplemented with 2 mM L-glutamine and 10% FBS. Human fibroblasts from gingiva isolated from original tissue, HFIB-G, (from Provitro) were cultured in Quantum 333 (from Immunique). The media were supplemented with 100 U/mL penicillin and 100 µg/mL streptomycin; all media components were obtained from Life Technologies. The adherent cell lines used in the studies were seeded on microplates before they exceeded 80% of confluence. Cells were cultured at 37 °C in 5% CO2 air atmosphere/95% air atmosphere.
(§4) Cytotoxic activity: The cells (the density for HL-60 was 0.5 × 10^4 cells/100 µL, otherwise it was 1 × 10^4 cells/100 µL) were plated into each well of 96-well microtiter plates and, after their attachment to the plate surface, treated with 10 µL of the indicated concentrations of compounds for 24 h. Viability was determined by MTT assay following the treatment. MTT (3-[4.5-dimethylthiazol-2-yl]-2.5-diphenyltetrazolium bromide; Sigma, St. Louis, MO, USA) solution was added to each well and incubated for another 4 h. The resulting MTT-formazan product was dissolved by the addition of lysis buffer (20% SDS and 50% DMF). The amount of formazan was determined by measuring absorbance at 570 nm with a Synergy 2 microplate reader (BioTek, Winooski, VT, USA) operated by the Gen5 program. The experiments were conducted three times with five replications. The results are expressed as an optical density ratio of the treatment to control. All data are presented as means ± SD.

IC50	SMILES
630 µM	CC(C)=CCCC(C)C(C)=CCCC(C)=CC=O (stereo not drawn) [Compound 18, 3,7,8,12-Tetramethyltrideca-2,6,11-trienal]
600 µM	CC(C)=CCCC(C)/C=C/CCC(C)=CC=O (stereo not drawn) [Compound 19, (6E)-3,8,12-Trimethyltrideca-2,6,11-trienal]

system: not listed separately; test: MTT viability, HT29; type: cell-based, human; conditions: human, HT29 colorectal adenocarcinoma cells, 1000 µM (IC50 exceeded 1000 µM), read-out: viability ± standard deviation at 1000 µM
Description: as §3, §4

SMILES	viability at 24 h, 1000 µM
CC(C)=CCCC(C)C(C)=CCCC(C)=CC=O (stereo not drawn) [Compound 18, 3,7,8,12-Tetramethyltrideca-2,6,11-trienal]	98%
CC(C)=CCCC(C)/C=C/CCC(C)=CC=O (stereo not drawn) [Compound 19, (6E)-3,8,12-Trimethyltrideca-2,6,11-trienal]	96%

system: Promyelocytic Leukaemia HL-60; test: MTT viability, HL-60; type: cell-based, human; conditions: Homo sapiens, HL-60, 24 h, HL-60, MTT, range 10–1000 µM, read-out: half maximal inhibitory concentration (IC50), interpolated
Description: as §3, §4

IC50	SMILES
502 µM	CC(C)=CCCC(C)C(C)=CCCC(C)=CC=O (stereo not drawn) [Compound 18, 3,7,8,12-Tetramethyltrideca-2,6,11-trienal]
550 µM	CC(C)=CCCC(C)/C=C/CCC(C)=CC=O (stereo not drawn) [Compound 19, (6E)-3,8,12-Trimethyltrideca-2,6,11-trienal]

system: Fibroblasts HFIG; test: MTT viability, HFIG; type: cell-based, human; conditions: Homo sapiens, Fibroblast, 24 h, range 10–1000 µM, read-out: half maximal inhibitory concentration (IC50), interpolated
Description: as §3, §4

SMILES	IC50
CC(C)=CCCC(C)C(C)=CCCC(C)=CC=O (stereo not drawn) [Compound 18, 3,7,8,12-Tetramethyltrideca-2,6,11-trienal]	690 µM
CC(C)=CCCC(C)/C=C/CCC(C)=CC=O (stereo not drawn) [Compound 19, (6E)-3,8,12-Trimethyltrideca-2,6,11-trienal]	750 µM

system: Keratinocytes HaCaT; test: MTT viability, HaCaT; type: cell-based, human; conditions: Homo sapiens, 24 h, range 10–1000 µM, read-out: half maximal inhibitory concentration (IC50), interpolated
Description: as §3, §4

SMILES	IC50
CC(C)=CCCC(C)C(C)=CCCC(C)=CC=O (stereo not drawn) [Compound 18, 3,7,8,12-Tetramethyltrideca-2,6,11-trienal]	800 µM
CC(C)=CCCC(C)/C=C/CCC(C)=CC=O (stereo not drawn) [Compound 19, (6E)-3,8,12-Trimethyltrideca-2,6,11-trienal]	650 µM

system: not listed separately; test: MTT viability, IEC6; type: cell-based; conditions: rat, IEC-6 small intestine epithelial cells, 1000 µM (IC50 exceeded 1000 µM), read-out: viability ± standard deviation at 1000 µM
Description: as §3, §4

SMILES	viability at 24 h, 1000 µM
CC(C)=CCCC(C)C(C)=CCCC(C)=CC=O (stereo not drawn) [Compound 18, 3,7,8,12-Tetramethyltrideca-2,6,11-trienal]	79%
CC(C)=CCCC(C)/C=C/CCC(C)=CC=O (stereo not drawn) [Compound 19, (6E)-3,8,12-Trimethyltrideca-2,6,11-trienal]	94%
